Laboratory results taken from EP3045469A1, “POLYMYXIN DERIVATIVE AND USES THEREOF” (priority 2015, dated 2016).
Read-outs that look alike come from different tables or passages of the source.

Assays:
[1] = rats; cited from earlier work
A. baumannii CMI 417 = assay: MIC assay (CLSI broth microdilution; checkerboard with rifampin); type: cell-based, Acinetobacter baumannii; details: in combination with rifampin (0.25 µg/mL), duplicate checkerboard assays; polymyxin-nonsusceptible strain
Method: (§1) Synergy studies were performed by using polymyxin derivatives in combination with rifampin, a model compound for such antibacterial agents that the intact outer membrane of Gram-negative bacteria acts as a permeability barrier.

Escherichia coli C175-94 = assay: Murine urinary infection efficacy study; type: in vivo
Method: The study used 64 outbred, OF-1 female mice (Charles River, France) weighing 28 -32 grams and Escherichia coli C175-94 (serotype O8:K48:H4), a clinical isolate elaborating type 1fimbriae. The peptides were NAB815 (Lot 1054308) and polymyxin B (Sigma-Aldrich, batch BCBF8382V). The study was performed by Statens Serum Institut, Copenhagen, Denmark.
Three days before the start of the study and during the study, the mice had free access to 5% glucose as drinking water.
On day 0, the urine was removed from the bladder by gently pressing the abdomen, Thereafter, the mouse was anaesthetized with approximately 0.15 ml of Zoletil mix s.c. A syringe with polyethylene catheter (Becton Dickison) containing the bacterial suspension was inserted via the urethra into the bladder and 50 µl of the bacterial inoculum was slowly injected into the bladder. Hereafter, the mouse was left in the cage. Mice were kept in a warming cabinet and were under surveillance until fully awake.
After measuring the colony forming units (CFUs), the inoculum was determined to contain 9.38 log10 CFU/ml, corresponding to 8.08 log10 CFU/mouse.
On day 1 and on day 2 postinfection, the mice were treated subcutaneously with solutions (0.2 ml) containing NAB815, polymyxin B or vehicle (0.9% NaCl) twice a day. The treatment groups (six mice in each) were the following: vehicle control; NAB815, 0.25 mg/kg/dose; NAB815, 0.5 mg/kg/dose; NAB815, 1 mg/kg/dose; NAB815, 2 mg/kg/dose; polymyxin B, 0.25 mg/kg/dose; polymyxin B, 0.5 mg/kg/dose; polymyxin B, 1 mg/kg/dose; and polymyxin B, 2 mg/kg/dose. In addition, one group served as a pretreatment control to help to assess as how the infection has proceeded before the start of the treatment on day 1 postinfection.
On days 1, 2 and 3 postinfection urine was sampled for colony counts. On day 1 postinfection (pretreatment control group) and on day 3 postinfection (all the other groups) after the urine sample was taken, mice were sacrificed by cervical dislocation and bladder and kidneys were removed aseptically. The bladder and kidneys were stored at -80 °C and later homogenized in 0.5 and 1 ml saline, respectively.
CFUs in urine were determined immediately within 2-3 hours after sampling. Frozen organs were thawed and homogenized with steel beads on a tissue lyser. All samples, urine, kidney and bladder, were 10 fold diluted in saline and 20-µl spots were applied on blood agar plates in duplicates. In addition, undiluted samples of urine (2-100 µl depending on the amount of urine) were spread on a separate agar plate to determine the lowest possible detection level of the colony counts. All agar plates were incubated 18-22 h at 35 °C in ambient air.

P. aeruginosa JMI 7445 = test system: P. aeruginosa JMI 7445
Method: as §1

K. pneumoniae JMI 27072 = test system: K. pneumoniae JMI 27072
Method: as §1

P. aeruginosa ATCC 27853 = test system: P. aeruginosa ATCC 27853
Method: as §1

A. baumannii ATCC 19606 = test system: A. baumannii ATCC 19606
Method: as §1

K. pneumoniae ATCC 43816 = test system: K. pneumoniae ATCC 43816
Method: as §1

E. coli ATCC 25922 = test system: E. coli ATCC 25922
Method: as §1

A. baumannii JMI 48125 = test system: A. baumannii JMI 48125
Method: as §1

E. coli JMI 3328 = test system: E. coli JMI 3328
Method: as §1

[2] = of all the 24 mice treated at 0.25-2 mg/kg/dose
[3] = alone, Müller-Hinton II broth, 35°C, 20 hours
[4] = in combination with rifampin (0.25 µg/mL), duplicate checkerboard assays

## Polymyxin B
[1]
  S-Crea and BUN response: lack of response
A. baumannii CMI 417
  MIC: 1 µg/mL
Escherichia coli C175-94; mice, 0.25-2 mg/kg/dose subcutaneously twice a day
  dose-response in the CFUs in the bladder and in the kidneys: did not show any dose-response tendency
Escherichia coli C175-94; mice, any dose group (0.25, 0.5, 1, 2 mg/kg/dose) subcutaneously twice a day
  CFU levels in urine, day 3 versus pretreatment control group on day 1 postinfection: no significant differences
Escherichia coli C175-94; [2]
  number of mice with bacterial levels below the detection limit in the kidneys: 10
  number of mice with bacterial levels below the detection limit in the urine: 1
P. aeruginosa JMI 7445; [3]
  MIC: 2 µg/mL
P. aeruginosa JMI 7445; [4]
  MIC: 1 µg/mL
K. pneumoniae JMI 27072; [3]
  MIC: 2 µg/mL
K. pneumoniae JMI 27072; [4]
  MIC: 1 µg/mL
P. aeruginosa ATCC 27853; [3]
  MIC: 2 µg/mL
P. aeruginosa ATCC 27853; [4]
  MIC: 1 µg/mL
A. baumannii ATCC 19606; [3]
  MIC: 2 µg/mL
A. baumannii ATCC 19606; [4]
  MIC: 0.5 µg/mL
K. pneumoniae ATCC 43816; [3]
  MIC: 2 µg/mL
K. pneumoniae ATCC 43816; [4]
  MIC: 0.5 to 1 µg/mL
E. coli ATCC 25922; [3]
  MIC: 2 µg/mL
E. coli ATCC 25922; [4]
  MIC: 0.5 to 1 µg/mL
A. baumannii JMI 48125; [3]
  MIC: 2 µg/mL
A. baumannii JMI 48125; [4]
  MIC: 1 µg/mL
E. coli JMI 3328; [3]
  MIC: 2 µg/mL
E. coli JMI 3328; [4]
  MIC: 0.5 to 1 µg/mL
